In article PMC11249953, “c-KIT inhibitors reduce pathology and improve behavior in the Tg(SwDI) model of Alzheimer’s disease” (Life Science Alliance, 2024):

Assays:
[1] = target: T1, MEK5 (Homo sapiens, UniProt Q13163); assay: KINOMEscan competition binding, MEK5; conditions: 10 µM compound; for remaining binding at 10 µM: lower = stronger binding, read-out: MEK5 %Ctrl @ 10000nM (POC)
T1 construct: DNA label for qPCR read-out (T7 phage fusion or DNA tag); purchased Eurofins DiscoverX Corporation; host or cells: T7 phage in E. coli (BL21-derived) or HEK-293
T1 sequence (Q13163 1-448): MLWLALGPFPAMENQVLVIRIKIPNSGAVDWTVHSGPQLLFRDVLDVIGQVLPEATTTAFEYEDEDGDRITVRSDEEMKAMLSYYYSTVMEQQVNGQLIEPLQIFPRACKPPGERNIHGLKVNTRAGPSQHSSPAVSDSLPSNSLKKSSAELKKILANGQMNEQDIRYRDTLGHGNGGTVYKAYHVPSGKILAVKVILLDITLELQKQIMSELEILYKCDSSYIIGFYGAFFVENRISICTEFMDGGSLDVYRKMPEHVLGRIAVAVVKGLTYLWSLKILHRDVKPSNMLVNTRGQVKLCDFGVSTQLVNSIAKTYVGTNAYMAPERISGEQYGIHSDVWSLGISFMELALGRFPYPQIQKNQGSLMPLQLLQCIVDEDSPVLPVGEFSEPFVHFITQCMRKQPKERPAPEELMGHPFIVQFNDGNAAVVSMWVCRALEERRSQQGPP
Experimental: (§1) The KINOMEscan screening platform (Eurofins DiscoverX Corporation) was performed using active site-directed competition binding assay to quantitatively measure interactions between BK40143 and BK40197 and more than 450 human kinases and disease relevant mutant variants. […] Screening “hits” are identified by measuring the amount of kinase captured in test (BK40143 and BK40197) versus control samples by using a quantitative and ultra-sensitive qRT-PCR method that detects the associated DNA label. BK40143 and BK40197 were screened at 10 µM concentration, and results for primary screen binding interactions were reported as “% Ctrl” (POC), where lower numbers indicate stronger hits and calculated as follows: [test compound signal−positive control signal/negative control signal−positive control signal]×100
(§2) negative control = DMSO (100% Ctrl)
(§3) positive control = control compound (0% Ctrl)
(§4) Based on screening data from of profiled compounds, a proportional relationship between primary screening results and corresponding compound/target affinities can be described as binding constants (Kd values) for the indicated ranges of POC values with tighter binding (higher affinity) interactions associated with lower POC values and weaker binding (lower affinity) associated with higher POC values. Briefly, kinase-tagged T7 phage strains were grown in parallel in 24-well blocks in an E. coli host derived from the BL21 strain. E. coli were grown to log-phase and infected with T7 phage from a frozen stock (multiplicity of infection = 0.4) and incubated with shaking at 32°C until lysis (90–150 min). The lysates were centrifuged (6,000g) and filtered (0.2 μm) to remove cell debris. The remaining kinases were produced in HEK-293 cells and subsequently tagged with DNA for qRT-PCR detection. Streptavidin-coated magnetic beads were treated with biotinylated small molecule ligands for 30 min at RT to generate affinity resins for kinase assays. The liganded beads were blocked with excess biotin and washed with blocking buffer (1% BSA, 0.05% Tween 20, 1 mM DTT; SeaBlock [Pierce]) to remove unbound ligand and to reduce non-specific phage binding. Binding reactions were assembled by combining kinases, liganded affinity beads, and test compounds in 1x binding buffer (20% 0.17x PBS, 0.05% Tween 20, 6 mM DTT; SeaBlock). Test compounds were prepared as 100x stocks in 100% DMSO and directly diluted into the assay. All reactions were performed in polypropylene 384-well plates in a final volume of 0.02 ml. The assay plates were incubated at RT with shaking for 1 h and the affinity beads were washed with wash buffer (1x PBS, 0.05% Tween 20). […] The kinase concentration in the eluates was measured by qRT-PCR.

[2] = target: T2, IRAK1 (Homo sapiens, UniProt P51617); assay: KINOMEscan competition binding, IRAK1; conditions: 10 µM compound; for remaining binding at 10 µM: lower = stronger binding, read-out: IRAK1 %Ctrl @ 10000nM (POC)
T2 construct: DNA label for qPCR read-out (T7 phage fusion or DNA tag); purchased Eurofins DiscoverX Corporation; host or cells: T7 phage in E. coli (BL21-derived) or HEK-293
T2 sequence (P51617 whole entry, the tested form may be a part): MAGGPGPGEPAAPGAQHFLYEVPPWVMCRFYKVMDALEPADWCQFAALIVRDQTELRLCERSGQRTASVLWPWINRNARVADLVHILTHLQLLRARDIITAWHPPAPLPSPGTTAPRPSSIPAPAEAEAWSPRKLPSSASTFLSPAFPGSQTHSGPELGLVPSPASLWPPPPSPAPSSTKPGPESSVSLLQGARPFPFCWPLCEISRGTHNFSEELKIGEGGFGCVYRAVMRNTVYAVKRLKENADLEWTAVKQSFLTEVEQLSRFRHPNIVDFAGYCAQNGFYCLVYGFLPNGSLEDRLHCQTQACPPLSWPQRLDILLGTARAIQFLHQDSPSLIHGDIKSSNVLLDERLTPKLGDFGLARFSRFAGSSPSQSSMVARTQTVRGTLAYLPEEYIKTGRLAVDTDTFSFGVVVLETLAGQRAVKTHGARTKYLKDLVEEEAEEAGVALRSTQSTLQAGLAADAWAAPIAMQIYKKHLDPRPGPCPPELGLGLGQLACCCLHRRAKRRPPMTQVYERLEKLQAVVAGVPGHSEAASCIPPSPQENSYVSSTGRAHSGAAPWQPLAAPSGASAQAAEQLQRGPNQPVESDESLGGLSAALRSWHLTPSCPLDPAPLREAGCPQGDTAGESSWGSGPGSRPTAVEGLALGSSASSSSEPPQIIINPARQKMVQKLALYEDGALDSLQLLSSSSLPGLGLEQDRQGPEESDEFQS
Experimental: as §1, §2, §3, §4

[3] = test system: phospho-c-KIT; assay: Western blot for phospho-c-KIT in brain lysates; type: in vivo, mouse; conditions: TgAPP mice; BK40143 5 mg/kg, BK40197 45 mg/kg; vs DMSO
Text: c-KIT is responsible for mast cell development and homeostasis ([Lake et al, 1978]; [Linnekin, 1999]; [Kitamura et al, 2006]). TKs are the central driving force for processes leading to mast cell activation ([Parravicini et al, 2002]; [Gomez et al, 2005]). Multiple receptors are capable of mediating or modifying mast cell activation ([Kraft & Kinet, 2007]; [Kuehn & Gilfillan, 2007]), the major receptor responsible being FcεRI, the high affinity receptor for immunoglobulin E (IgE) ([Rivera & Gilfillan, 2006]). Mast cells are tissue-resident cells of hematopoietic lineage which are derived from CD13^+CD34^+KIT(CD117)^+ bone marrow pluripotent progenitors ([Kirshenbaum et al, 1999]). Although mast cells play an important role in the innate immune system ([Marshall, 2004]; [Galli et al, 2005]), these cells are also responsible for the detrimental exaggerated reactions to antigen ([Galli et al, 2008]) that follow the release of potent inflammatory mediators as a consequence of receptor-mediated mast cell activation ([Metcalfe et al, 1997]). The progression of these cells to fully mature mast cells is dependent on c-KIT activation which occurs because of stem cell factor-induced c-KIT dimerization and auto-phosphorylation ([Kirshenbaum et al, 1999]). […]
Brain hemispheres from treated and untreated animals were lysed in 1x STEN buffer and protein concentrations were measured via BCA assay. […]

SMILES	inhibition at 10 µM [1] [%]	remaining binding at 10 µM [1] [%]	inhibition at 10 µM [2] [%]	remaining binding at 10 µM [2] [%]	phospho-c-KIT levels in brain (Western blot) [3]
Cc1cccc(-c2cc3nccc(Nc4ccccc4)c3s2)c1 [BK40143]	99.7	0.35	54	46	significant decrease in phospho-c-KIT levels
Cc1cccc(-c2cc3nccc(N4CCOCC4)c3s2)c1 [BK40197]	93.1	6.9	94.7	5.3	similar, albeit not statistically significant, trend
